Laboratory results taken from paper PMC6979384, “Characterization of the plant homeodomain (PHD) reader family for their histone tail interactions” (Epigenetics & Chromatin, 2020).

Experiments:
Test in all cases: Histone peptide microarray
Type in all cases: binding, human
AIRE (PP) = settings: AIRE (PP)
In short: (§1)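 Binding read as mean relative signal from 4 replicates; microarray held 293 synthetic histone peptides with single or combinatorial PTMs. Each GST-tagged PHD reader was applied at 0.5 μM using the optimized Petell protocol.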

BAZ2B = settings: BAZ2B
In short: as §1

BPTF (PB) = settings: BPTF (PB)
In short: as §1

CHD4 (PPCC) = settings: CHD4 (PPCC)
In short: as §1

CHD5 (PCC) = settings: CHD5 (PCC)
In short: as §1

CHD5 (PPCC) = settings: CHD5 (PPCC)
In short: as §1

DIDO1 = test system: DIDO1
In short: as §1

DPF2 (PPC2W2) = settings: DPF2 (PPC2W2)
In short: as §1

ING1 = test system: ING1
In short: as §1

ING2 = test system: ING2
In short: as §1

ING3 = test system: ING3
In short: as §1

ING4 = test system: ING4
In short: as §1

ING5 = test system: ING5
In short: as §1

KDM4C (TTP) = settings: KDM4C (TTP)
In short: as §1

KDM5A (1) = settings: KDM5A (1)
In short: as §1

KDM5A (3) = settings: KDM5A (3)
In short: as §1

KDM5B (1) = settings: KDM5B (1)
In short: as §1

KDM5B (3) = settings: KDM5B (3)
In short: as §1

KDM7A = settings: KDM7A
In short: as §1

MLL5 = test system: MLL5
In short: as §1

MORC3 (CW) = settings: MORC3 (CW)
In short: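 GST-tagged PHD readers, 0.5 μM, probed on a microarray of 293 synthetic histone peptides carrying single or combinatorial PTMs (optimized Petell protocol). Signals are averaged over 4 replicates and expressed as relative binding.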

PHF13 = test system: PHF13
In short: as §1

PHF21A = settings: PHF21A
In short: as §1

PHF23 = test system: PHF23
In short: as §1

PHF2 = test system: PHF2
In short: as §1

PHF8 = test system: PHF8
In short: as §1

PHRF1 (RP) = settings: PHRF1 (RP)
In short: as §1

RAG2 = test system: RAG2
In short: as §1

SP140L = settings: SP140L
In short: as §1

TAF3 = test system: TAF3
In short: as §1

TRIM66 (PB) = settings: TRIM66 (PB)
In short: as §1

[1] = GST-tagged, arrays performed twice, n of 4
[2] = sheet "Array Heatmap", each array performed twice, total n = 4

With H4K20ac: H4 1-23 [Peptide H4K20ac] the “Array Heatmap value (peptide array binding signal)” value (AIRE (PP); [1]) was 0.423, the “Array Heatmap value (peptide array binding signal)” value (BAZ2B; [1]) was 0.4009 and the “Array Heatmap value (peptide array binding signal)” value (BPTF (PB); [1]) was 0.3137. For the same substance, the “Array Heatmap value (peptide array binding signal)” value (CHD4 (PPCC); [1]) was 0.5173, the “Array Heatmap value (peptide array binding signal)” value (CHD5 (PCC); [1]) was 0.7369 and the “Array Heatmap value (peptide array binding signal)” value (CHD5 (PPCC); [1]) was 0.4774. For the same substance, the “Array Heatmap value (peptide array binding signal)” value (DIDO1; DIDO1, GST-tagged, arrays performed twice, n of 4) was 0.5747, the “Array Heatmap value (peptide array binding signal)” value (DPF2 (PPC2W2); [1]) was 0.5691 and the “Array Heatmap value (peptide array binding signal)” value (ING1; ING1, GST-tagged, arrays performed twice, n of 4) was 0.4651. The “Array Heatmap value (peptide array binding signal)” value (ING2; ING2, GST-tagged, arrays performed twice, n of 4) was 0.5829, the “Array Heatmap value (peptide array binding signal)” value (ING3; ING3, GST-tagged, arrays performed twice, n of 4) was 0.4032 and the “Array Heatmap value (peptide array binding signal)” value (ING4; ING4, GST-tagged, arrays performed twice, n of 4) was 0.4009. For the same substance, the “Array Heatmap value (peptide array binding signal)” value (ING5; ING5, GST-tagged, arrays performed twice, n of 4) was 0.3047, the “Array Heatmap value (peptide array binding signal)” value (KDM4C (TTP); [1]) was 0.4301 and the “Array Heatmap value (peptide array binding signal)” value (KDM5A (1); [1]) was 0.4202. For the same substance, the “Array Heatmap value (peptide array binding signal)” value (KDM5A (3); [1]) was 0.374, the “Array Heatmap value (peptide array binding signal)” value (KDM5B (1); [1]) was 0.6134 and the “Array Heatmap value (peptide array binding signal)” value (KDM5B (3); [1]) was 0.5071. The “Array Heatmap value (peptide array binding signal)” value (KDM7A; [1]) was 0.3276, the “Array Heatmap value (peptide array binding signal)” value (MLL5; MLL5, GST-tagged, arrays performed twice, n of 4) was 0.5228 and the “Array Heatmap value (peptide array binding signal)” value (MORC3 (CW); [1]) was 0.3311. For the same substance, the “Array Heatmap value (peptide array binding signal)” value (PHF13; PHF13, GST-tagged, arrays performed twice, n of 4) was 0.5544, the “Array Heatmap value (peptide array binding signal)” value (PHF21A; [1]) was 0.3977 and the “Array Heatmap value (peptide array binding signal)” value (PHF23; PHF23, GST-tagged, arrays performed twice, n of 4) was 0.4966. The “Array Heatmap value (peptide array binding signal)” value (PHF2; PHF2, GST-tagged, arrays performed twice, n of 4) was 0.4522, the “Array Heatmap value (peptide array binding signal)” value (PHF8; PHF8, GST-tagged, arrays performed twice, n of 4) was 0.3218 and the “Array Heatmap value (peptide array binding signal)” value (PHRF1 (RP); [1]) was 0.3806. The “Array Heatmap value (peptide array binding signal)” value (RAG2; RAG2, GST-tagged, arrays performed twice, n of 4) was 0.2177, the “Array Heatmap value (peptide array binding signal)” value (SP140L; [1]) was 0.3288 and the “Array Heatmap value (peptide array binding signal)” value (TAF3; TAF3, GST-tagged, arrays performed twice, n of 4) was 0.2578. The “Array Heatmap value (peptide array binding signal)” value (TRIM66 (PB); [1]) was 0.5321.
With H4K20me3 (1-23): H4 1-23 the “Array Heatmap value (peptide array signal)” value (AIRE (PP); [2]) was 0.4048, the “Array Heatmap value (peptide array signal)” value (BAZ2B; [2]) was 0.4188 and the “Array Heatmap value (peptide array signal)” value (BPTF (PB); [2]) was 0.3468. For the same substance, the “Array Heatmap value (peptide array signal)” value (CHD4 (PPCC); [2]) was 0.5546, the “Array Heatmap value (peptide array signal)” value (CHD5 (PCC); [2]) was 0.7553 and the “Array Heatmap value (peptide array signal)” value (CHD5 (PPCC); [2]) was 0.5147. The “Array Heatmap value (peptide array signal)” value (DIDO1; DIDO1, sheet "Array Heatmap", each array performed twice, total n = 4) was 0.6567, the “Array Heatmap value (peptide array signal)” value (DPF2 (PPC2W2); [2]) was 0.6148 and the “Array Heatmap value (peptide array signal)” value (ING1; ING1, sheet "Array Heatmap", each array performed twice, total n = 4) was 0.5131. For the same substance, the “Array Heatmap value (peptide array signal)” value (ING2; ING2, sheet "Array Heatmap", each array performed twice, total n = 4) was 0.5794, the “Array Heatmap value (peptide array signal)” value (ING3; ING3, sheet "Array Heatmap", each array performed twice, total n = 4) was 0.465 and the “Array Heatmap value (peptide array signal)” value (ING4; ING4, sheet "Array Heatmap", each array performed twice, total n = 4) was 0.4304. For the same substance, the “Array Heatmap value (peptide array signal)” value (ING5; ING5, sheet "Array Heatmap", each array performed twice, total n = 4) was 0.3228, the “Array Heatmap value (peptide array signal)” value (KDM4C (TTP); [2]) was 0.4703 and the “Array Heatmap value (peptide array signal)” value (KDM5A (1); [2]) was 0.4224. The “Array Heatmap value (peptide array signal)” value (KDM5A (3); [2]) was 0.4449, the “Array Heatmap value (peptide array signal)” value (KDM5B (1); [2]) was 0.6332 and the “Array Heatmap value (peptide array signal)” value (KDM5B (3); [2]) was 0.4599. For the same substance, the “Array Heatmap value (peptide array signal)” value (KDM7A; [2]) was 0.329, the “Array Heatmap value (peptide array signal)” value (MLL5; MLL5, sheet "Array Heatmap", each array performed twice, total n = 4) was 0.5073 and the “Array Heatmap value (peptide array signal)” value (MORC3 (CW); [2]) was 0.3692. For the same substance, the “Array Heatmap value (peptide array signal)” value (PHF13; PHF13, sheet "Array Heatmap", each array performed twice, total n = 4) was 0.5943, the “Array Heatmap value (peptide array signal)” value (PHF21A; [2]) was 0.4514 and the “Array Heatmap value (peptide array signal)” value (PHF23; PHF23, sheet "Array Heatmap", each array performed twice, total n = 4) was 0.5181. The “Array Heatmap value (peptide array signal)” value (PHF2; PHF2, sheet "Array Heatmap", each array performed twice, total n = 4) was 0.4783, the “Array Heatmap value (peptide array signal)” value (PHF8; PHF8, sheet "Array Heatmap", each array performed twice, total n = 4) was 0.3429 and the “Array Heatmap value (peptide array signal)” value (PHRF1 (RP); [2]) was 0.4228. For the same substance, the “Array Heatmap value (peptide array signal)” value (RAG2; RAG2, sheet "Array Heatmap", each array performed twice, total n = 4) was 0.2424, the “Array Heatmap value (peptide array signal)” value (SP140L; [2]) was 0.3602 and the “Array Heatmap value (peptide array signal)” value (TAF3; TAF3, sheet "Array Heatmap", each array performed twice, total n = 4) was 0.2546. The “Array Heatmap value (peptide array signal)” value (TRIM66 (PB); [2]) was 0.5898.
